Drawing on US20240279221A1, “HETEROCYCLIC COMPOUNDS AND METHODS OF USE” (Schrödinger, Inc., priority 2021, published 2024), this text covers Kd and IC50 for six compounds.

Each structure is given as a SMILES string.

For one test, the target named is human SOS1 (Homo sapiens (Human), UniProt Q07889). Put plainly: Surface Plasmon Resonance (SPR) SOS1 Binding Assay. The settings on record: biotinylated SOS1 (res. 564-1049), 25° C., kinetic or steady state fit, read-out: KD for hSOS1. The method, boiled down:
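Biotinylated human SOS1 (res. 564-1049, N-terminal Avi tag) captured on streptavidin chip to ~3,000 RU; 25° C., Tris buffer pH 8.0 with 1 mM MgCl2, 5% DMSO running buffer. Compound series (top 100, 50 or 0.5 μM) injected 60 s, dissociation 600 s; double-referenced KD from 1:1 kinetic or steady-state fit.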

Test [1] concerns the target SOS1:KRAS (G12C) interaction (Homo sapiens (Human), UniProt Q07889). Briefly: SOS1-KRas(G12C) FRET Assay. The settings on record: 0.5 nM His10-SOS1 (res. 564-1049), 2.5 nM GST-KRAS (res. 1-169, G12C); read-out: SOS-KRas(G12C) FRET IC50. It counts as binding. The method, boiled down: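 Compounds were pre-incubated 15 min at 25° C with SOS1 (His10, res. 564-1049; 0.5 nM final) and anti-6His-XL665, then GST-KRAS G12C (res. 1-169; 2.5 nM final) with anti-GST-Eu(K) was added for 2 h at RT. The buffer was PBS, 0.1% BSA, 5 mM MgCl2, 100 mM KF, 5 mM DTT with 0.5% DMSO. The 665/615 nm signal was normalised to DMSO and no-SOS1 controls, and IC50 and Hill coefficient were fitted by non-linear regression.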

Chain of human SOS1 (Q07889 564-1049): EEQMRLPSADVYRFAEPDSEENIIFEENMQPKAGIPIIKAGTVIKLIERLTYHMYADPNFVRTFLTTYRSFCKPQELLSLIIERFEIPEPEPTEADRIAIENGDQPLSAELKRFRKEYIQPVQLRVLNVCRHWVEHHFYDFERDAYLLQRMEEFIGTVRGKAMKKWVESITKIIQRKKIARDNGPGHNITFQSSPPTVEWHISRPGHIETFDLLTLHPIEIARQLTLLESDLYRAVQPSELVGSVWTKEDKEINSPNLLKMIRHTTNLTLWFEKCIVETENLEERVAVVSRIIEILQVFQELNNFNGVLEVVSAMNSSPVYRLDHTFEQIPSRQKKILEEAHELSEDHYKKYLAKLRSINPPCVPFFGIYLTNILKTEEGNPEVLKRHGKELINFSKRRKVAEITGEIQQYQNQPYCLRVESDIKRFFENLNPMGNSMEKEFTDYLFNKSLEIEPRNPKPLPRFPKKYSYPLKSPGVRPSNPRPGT
Chain of SOS1:KRAS (G12C) interaction (Q07889 564-1049, stated change not applied): as the sequence (Q07889 564-1049) above

In the case of `C[C@@H](Nc1nn(C)c(=O)c2cc(=O)n(C3CC(C#N)C3)cc12)c1cccc(C(F)F)c1F` (stereo partly drawn) [Example 76, (1r,3s)-3-(4-(((R)-1-(3-(difluoromethyl)-2-fluorophenyl)ethyl)amino)-2-methyl-1,7-dioxo-1,7-dihydropyrido[3,4-d]pyridazin-6(2H)-yl)cyclobutane-1-carbonitrile], the Kd on human SOS1 worked out at 37 nM. Further, the half-maximal inhibitory concentration (IC50) in test [1] came out at 92.8 nM.

Regarding `Cc1cc([C@@H](C)Nc2nn(C)c(=O)c3cc(=O)n(C4CC4)cc23)cc2c1c(C#N)nn2C` (single isomer, unassigned) [Example 27], at human SOS1, the dissociation constant Kd came to 134 nM. Besides, the 50% inhibitory concentration (IC50) in test [1] amounted to 1530 nM.

In the case of `CC(=O)N1CCC(n2cc3c(N[C@H](C)c4cccc(C(F)(F)F)c4C)nn(C)c(=O)c3cc2=O)CC1` [Example 9, (R)-6-(1-acetylpiperidin-4-yl)-2-methyl-4-((1-(2-methyl-3-(trifluoromethyl)phenyl)ethyl)amino)-2,6-dihydropyrido[3,4-d]pyridazine-1,7-dione], on human SOS1, the Kd is 64 nM. Besides, the IC50 in test [1] turned out to be 286 nM.

In the case of `Cc1c([C@@H](C)Nc2nn(C)c(=O)c3cc(=O)n([C@H]4C[C@@H](O)C4)cc23)cccc1C(F)(F)F` [Example 14, 6-((1s,3s)-3-hydroxycyclobutyl)-2-methyl-4-(((R)-1-(2-methyl-3-(trifluoromethyl)phenyl)ethyl)amino)-2,6-dihydropyrido[3,4-d]pyridazine-1,7-dione], the dissociation constant Kd at human SOS1 is 87 nM. In test [1], the IC50 worked out at 537 nM.

Turning to `C[C@@H](Nc1nn(C)c(=O)c2cc(=O)n(C3CC3)cc12)c1cccc(C(F)(F)C(C)(C)O)c1F` [Example 42, (R)-6-cyclopropyl-4-((1-(3-(1,1-difluoro-2-hydroxy-2-methylpropyl)-2-fluorophenyl)ethyl)amino)-2-methyl-2,6-dihydropyrido[3,4-d]pyridazine-1,7-dione], at human SOS1, the Kd is 34 nM. Also, in test [1], the half-maximal inhibitory concentration (IC50) is 54.9 nM.

As to `C[C@@H](Nc1nn(C)c(=O)c2cc(=O)n(C3CCOCC3)cc12)c1cccc(C(F)F)c1F` [Example 18, (R)-4-((1-(3-(difluoromethyl)-2-fluorophenyl)ethyl)amino)-2-methyl-6-(tetrahydro-2H-pyran-4-yl)-2,6-dihydropyrido[3,4-d]pyridazine-1,7-dione], the Kd at human SOS1 was found to be 16 nM. The concentration for half-maximal inhibition (IC50) in test [1] came to 53.8 nM.
